From paper PMC7815742 (Nature Communications, 2021)

Columns and labels:
(UniProt A0A3A0FWV3) = molecular target: T1, (UniProt A0A3A0FWV3); assay: in vitro [3H]-progesterone reduction assay with purified enzyme, HPLC radiodetection; assay type: biochemical, Pseudomonadota bacterium
T1 construct: GenBank RIL07334.1, purified wild type

[1] = molecular target: the molecule itself; assay: AUC; sedimentation velocity, 20 °C, 25 mM HEPES pH 7.5, 150 mM NaCl, 5% glycerol, 0.02% DDM, 5 mM DTT; masses calculated with SEDFIT and GUSSI

T1 sequence (A0A3A0FWV3 1-253 limits assumed): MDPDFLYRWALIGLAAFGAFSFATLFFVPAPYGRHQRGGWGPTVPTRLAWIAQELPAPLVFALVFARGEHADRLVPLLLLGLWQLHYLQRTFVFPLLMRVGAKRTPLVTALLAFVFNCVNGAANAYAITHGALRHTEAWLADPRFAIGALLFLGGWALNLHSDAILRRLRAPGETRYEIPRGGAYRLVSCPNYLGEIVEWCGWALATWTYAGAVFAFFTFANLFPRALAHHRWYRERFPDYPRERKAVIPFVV

Q: How did the IC50 ((UniProt A0A3A0FWV3)) turn out when C[C@]12C=CC(=O)N[C@@H]1CC[C@@H]1[C@@H]2CC[C@]2(C)[C@@H](C(=O)Nc3cc(C(F)(F)F)ccc3C(F)(F)F)CC[C@@H]12 [Duta, dutasteride] was run?
A: The IC50 was 1590 ± 190 nM.

B1: mycobacterial homolog of Insig protein (MvINS) (natural protein)
chain: MRLRISEAVVLFLLGAVAALIGDHSHVVTGTTVYHTDAVPFVWSSPFWFPILVGAATASLAELRLHLPAPRDGVTARQALGGVAAVVGTYVTTALVHAFPVVPVTALVCAAAAITWCVLGDGPGAACGVVIAVIGPAVEIALVQLGVFAYHPDSDGLFGVAPFLAPLYFAFGVVAALLGELAVARRPQLGPPVCDTVSRGPGAG
notes: mycobacterial homolog of Insig, MvINS; PDB 4XU4; theoretical protomer mass 23.6 kDa
Q: For B1, which “stoichiometry N” value [1] is on record?
A: Its value is 3.
